Assay type in all cases: cell-based
Assay [1] deals with Haemophilus Influenzae 351CB12. Put plainly: Activity on Gram- bacterial strains. On the procedure: (§1) Method of Dilutions in Liquid Medium
(§2) A series of tubes were prepared in which the same quantity of nutritive sterile medium was distributed. Increasing quantities of the product to be studied were distributed into each tube and then each tube was seeded with a bacterial strain. After incubation for twenty-four hours in an oven at 37° C., the growth inhibition was evaluated by transillumination, which allowed the minimal inhibitory concentrations (M.I.C.) to be determined, expressed in micrograms/ml.

Assay [2] relates to Haemophilus Influenzae 351CA1. The experiment in a line: Activity on Gram- bacterial strains. The protocol: as §1, §2
For assay [3], the system named is Haemophilus Influenzae 351HT3. The experiment in a line: Activity on Gram- bacterial strains. The protocol: as §1, §2
A further assay has as its system S. aureus 011UC4. The experiment in a line: Method of dilutions in liquid medium (M.I.C.). As to conditions: reading after 24 hours, 37° C. On the procedure: (§3) Method of Dilutions in Liquid Medium A series of tubes were prepared in which the same quantity of nutritive sterile medium was distributed. Increasing quantities of the product to be studied were distributed into each tube and then each tube was seeded with a bacterial strain. After incubation for twenty-four hours in an oven at 37° C., the growth inhibition was evaluated by transillumination, which allowed the minimal inhibitory concentrations (M.I.C.) to be determined, expressed in micrograms/ml. The following results were obtained: (reading after 24 hours)

For another assay, the system named is S. epidermidis 012GO11I. Put plainly: Method of dilutions in liquid medium (M.I.C.). Particulars: reading after 24 hours, 37° C. The protocol:
as §3

The test system of the next assay is S. mitis 02MitCB1. The experiment in a line: Method of dilutions in liquid medium (M.I.C.). Particulars: reading after 24 hours, 37° C. The protocol:
as §3

A further assay has as its system S. faecium 02D3HT1. The experiment in a line: Method of dilutions in liquid medium (M.I.C.). Particulars: reading after 24 hours, 37° C. The protocol: as §3
The test system of another assay is S. agalactiae 02B1SJ1c. Put plainly: Method of dilutions in liquid medium (M.I.C.). Particulars: reading after 24 hours, 37° C. The protocol: as §3
In another assay the test system is S. faecalis 02D2UC1. The experiment in a line: Method of dilutions in liquid medium (M.I.C.). Particulars: reading after 24 hours, 37° C. The protocol: as §3
The subject of another assay is S. aureus 011GO25I. Put plainly: Method of dilutions in liquid medium (M.I.C.). Particulars: reading after 24 hours, 37° C. On the procedure:
as §3

The test system of assay [4] is Streptococcus gr. G 02GOGR5. The experiment in a line: Method of dilutions in liquid medium (M.I.C.). As to conditions: reading after 24 hours, 37° C. On the procedure: as §3
The next assay relates to S. pneumoniae 030GR20. The experiment in a line: Method of dilutions in liquid medium (M.I.C.). As to conditions: reading after 24 hours, 37° C. On the procedure: as §3
A further assay deals with S. agalactiae 02B1HT1. Put plainly: Method of dilutions in liquid medium (M.I.C.). As to conditions: reading after 24 hours, 37° C. The protocol: as §3
For another assay, the system named is S. pneumoniae 032UC1. Put plainly: Method of dilutions in liquid medium (M.I.C.). As to conditions: reading after 24 hours, 37° C. The protocol:
as §3

The test system of the next assay is S. pyogenes 02A1UC1. Put plainly: Method of dilutions in liquid medium (M.I.C.). Particulars: reading after 24 hours, 37° C. The protocol:
as §3

Here are results for 2 compounds from US7119180B2, “2-halogenated derivatives of 5-O-desosaminyl-erythronolide A, their preparation process and their antibiotic use” (Aventis Pharma S.A., priority 1998, dated 2006).

`CC[C@H]1OC(=O)[C@@](C)(F)C(=O)[C@H](C)[C@@H](O[C@@H]2O[C@H](C)C[C@H](N(C)C)[C@H]2O)[C@](C)(OC)C[C@@H](C)C2=NCCN3C(=O)O[C@@]1(C)[C@H]3[C@H]2C` (relative stereo) [Example 1, [3 as-(3aR*,4S*,7R*,9S*,10S*,11S*,13S*,15S*,15aS*)]-4-ethyl-7-fluoro-3a,4,10,11,12,13,15,15a-octahydro-11-methoxy-3a,7,9,11,13,15-hexamethyl-10-[[3,4,6-trideoxy-3-(dimethyl-amino)-beta-D-xylo-hexopyranosyl]oxy]-14,1-(nitriloethano)-2H-oxacyclotetradecino[4,3-d]oxazole-2,6,8(9H)-trione]: the “activity on Gram- bacterial strain” value in assay [1], in [2] and in assay [3] was “useful activity” each time. The “minimal inhibitory concentrations (M.I.C.)” value was 0.040 micrograms/ml in the assay on S. aureus 011UC4 (S. aureus 011UC4 + 50% serum); 0.150 micrograms/ml with S. aureus 011UC4 (S. aureus 011UC4); 0.300 micrograms/ml in the assay with S. epidermidis 012GO11I; 0.040 micrograms/ml in the assay on S. mitis 02MitCB1; “# 0.02 micrograms/ml” in the assay with S. faecium 02D3HT1; 1.200 micrograms/ml with S. agalactiae 02B1SJ1c. Also, the “minimal inhibitory concentrations (M.I.C.)” value in the assay on S. faecalis 02D2UC1 was 0.040 micrograms/ml; in the assay on S. aureus 011GO25I, 0.600 micrograms/ml; in assay [4], 0.040 micrograms/ml; with S. pneumoniae 030GR20 it was “# 0.02 micrograms/ml”; with S. agalactiae 02B1HT1, “# 0.02 micrograms/ml”; with S. pneumoniae 032UC1, 0.080 micrograms/ml. For the same compound, the “minimal inhibitory concentrations (M.I.C.)” value in the assay with S. pyogenes 02A1UC1 was 0.040 micrograms/ml.

In the case of “(3aS,4R,7S,9R,10R,11R,13R,15R,15aR,18S)-4-ethyl-7-fluoro-3a,4,10,11,12,13,15,15a-octahydro-18-(hydroxymethyl)-11-methoxy-3a,7,9,11,13,15-hexamethyl-10-[[3,4,6-trideoxy-3-(dimethylamino)-beta-D-xylo-hexopyranosyl]oxy]-14,1-(nitriloethano)-2H-oxacyclotetradecino[4,3-d]oxazole-2,6,8(7H,9H)-trione [Example 3]”, the “minimal inhibitory concentrations (M.I.C.)” value in the assay on S. aureus 011UC4 (S. aureus 011UC4 + 50% serum) is listed as 0.040 micrograms/ml; in the assay with S. aureus 011UC4 (S. aureus 011UC4) it was 0.040 micrograms/ml; in the assay on S. epidermidis 012GO11I it was 0.150 micrograms/ml; with S. mitis 02MitCB1, 0.02 micrograms/ml; in the assay on S. faecium 02D3HT1 it was 0.02 micrograms/ml; with S. agalactiae 02B1SJ1c it was 0.02 micrograms/ml. Besides, the “minimal inhibitory concentrations (M.I.C.)” value stood at 0.02 micrograms/ml in the assay with S. faecalis 02D2UC1; 0.040 micrograms/ml in the assay on S. aureus 011GO25I; 0.02 micrograms/ml in [4]; 0.02 micrograms/ml with S. pneumoniae 030GR20; 0.02 micrograms/ml with S. agalactiae 02B1HT1; 0.02 micrograms/ml in the assay with S. pneumoniae 032UC1. In addition, in the assay on S. pyogenes 02A1UC1, the “minimal inhibitory concentrations (M.I.C.)” value was “# 0.02 micrograms/ml”.
